Data as given in article PMC5643462, “Encrypted Antimicrobial Peptides from Plant Proteins” (Scientific Reports, 2017).
Converted amounts (≈) assume the structure as drawn.

Experiments:
[1] = system: Bacillus subtilis; experiment: microbe, parasite or virus in culture; settings: ATCC 23857; Mueller-Hinton; 37 °C, 24 h; start 5.0 x 10^5 cells; 256-0.5 µM; mean ± SD of 3 biological repetitions (SD 0 not displayed); N/A = no antimicrobial activity observed
Method: (§1) The susceptibility test of microorganisms was performed to evaluate the inhibitory activity of the IAPs. Protocols M7-A10[50], M27-A3[51] and M38-A2[52] from Clinical & Laboratory Standards Institute (CLSI) were used for bacteria, yeasts and filamentous fungi tests, respectively. Briefly, different concentration of IAPs (256-0.5 µM) were tested against 16 microorganisms, in a final volume of 100 µL. Media conditions, final cell concentration and incubation conditions are presented in Supplementary Material 07, Table S5. Three biological repetitions, with 2 technical replicates each, were performed for each test, on polystyrene flat-bottom 96 wells microplates. The minimum inhibitory concentration (MIC) was defined as the concentration that no cells/hyphae were detected when visualized by optical microscopy.
(§2) Supplementary Material 07, Table S5
(§3) Table S5. Microorganisms and growth conditions.

[2] = system: Erwinia carotovora; experiment: microbe, parasite or virus in culture; settings: Mueller-Hinton; 28 °C, 24 h; start 5.0 x 10^5 cells; 256-0.5 µM; mean ± SD of 3 biological repetitions (SD 0 not displayed); N/A = no antimicrobial activity observed
Method: as §1, §2, §3

[3] = system: Escherichia coli; experiment: microbe, parasite or virus in culture; settings: ATCC 25922; Mueller-Hinton; 37 °C, 24 h; start 5.0 x 10^5 cells; 256-0.5 µM; mean ± SD of 3 biological repetitions (SD 0 not displayed); N/A = no antimicrobial activity observed
Method: as §1, §2, §3

[4] = system: Pseudomonas syringae pv. tabaci; experiment: microbe, parasite or virus in culture; settings: Mueller-Hinton; 28 °C, 24 h; start 5.0 x 10^5 cells; 256-0.5 µM; mean ± SD of 3 biological repetitions (SD 0 not displayed); N/A = no antimicrobial activity observed
Method: as §1, §2, §3

[5] = system: Staphylococcus aureus; experiment: microbe, parasite or virus in culture; settings: ATCC 25923; Mueller-Hinton; 37 °C, 24 h; start 5.0 x 10^5 cells; 256-0.5 µM; mean ± SD of 3 biological repetitions (SD 0 not displayed); N/A = no antimicrobial activity observed
Method: as §1, §2, §3

[6] = system: Xanthomonas campestris; experiment: microbe, parasite or virus in culture; settings: pv. citri; Mueller-Hinton; 28 °C, 24 h; start 5.0 x 10^5 cells; 256-0.5 µM; mean ± SD of 3 biological repetitions (SD 0 not displayed); N/A = no antimicrobial activity observed
Method: as §1, §2, §3

[7] = system: Escherichia coli; experiment: Microbicidal activity (minimal killing concentration), plating on agar; format: cell-based, Escherichia coli ATCC 25922; settings: 10 µL of MIC and raising concentrations up to 256 µM plated on Mueller-Hinton agar; 37 °C, 24 h; no growth; mean ± SD, 3 biological replicates
Method: (§4) The microbicidal activity of the IAPS was also evaluated. […] YPD agar and Mueller-Hinton agar were used for fungi/yeasts and bacteria, respectively. Meanwhile, susceptibility microplates were incubated again to evaluate if there would be any growing after a longer period. For both approaches, the minimal killing concentration (MKC) was defined as the concentration that no growth was observed after incubation. Three biological replicates were performed for each test.
as §2, §3
(§5) Microorganisms Incubation Incubation Starting cell Growth Medium

[8] = system: Bacillus subtilis; experiment: as above; format: cell-based, Bacillus subtilis ATCC 23857; settings: 10 µL of MIC and raising concentrations up to 256 µM plated on Mueller-Hinton agar; 37 °C, 24 h; no growth; mean ± SD, 3 biological replicates
Method: as §4, §2, §3, §5

[9] = system: Staphylococcus aureus; experiment: as above; format: cell-based, Staphylococcus aureus ATCC 25923; settings: 10 µL of MIC and raising concentrations up to 256 µM plated on Mueller-Hinton agar; 37 °C, 24 h; no growth; mean ± SD, 3 biological replicates
Method: as §4, §2, §3, §5
(§6) Temperature (°C) Time (h) concentration
(§7) Erwinia carotovora 28 24 5.0 x 10 5 Mueller -Hinton
(§8) Xanthomonas campestris pv. citri 28 24 5.0 x 10 5 Mueller -Hinton
(§9) Pseudomonas syringae pv. tabaci 28 24 5.0 x 10 5 Mueller -Hinton

[10] = system: Erwinia carotovora; experiment: as above; format: cell-based; settings: 10 µL of MIC and raising concentrations up to 256 µM plated on Mueller-Hinton agar; 28 °C, 24 h; no growth; mean ± SD, 3 biological replicates
Method: as §4, §2, §3, §5, §6, §7, §8, §9

[11] = system: Pseudomonas syringae pv. tabaci; experiment: as above; format: cell-based; settings: 10 µL of MIC and raising concentrations up to 256 µM plated on Mueller-Hinton agar; 28 °C, 24 h; no growth; mean ± SD, 3 biological replicates
Method: as §4, §2, §3, §5, §6, §7, §8, §9

[12] = system: Xanthomonas campestris; experiment: as above; format: cell-based, Xanthomonas campestris pv. citri; settings: 10 µL of MIC and raising concentrations up to 256 µM plated on Mueller-Hinton agar; 28 °C, 24 h; no growth; mean ± SD, 3 biological replicates
Method: as §4, §2, §3, §5, §6, §7, §8, §9

[13] = system: Candida albicans; experiment: microbe, parasite or virus in culture; settings: Candida albicans, ATCC90028, 48 h, pH 7, read-out: Minimum inhibitory concentration, Candida albicans
Method: as §1, §2, §3

[14] = system: Cryptococcus neoformans; experiment: microbe, parasite or virus in culture; settings: Cryptococcus neoformans, ATCC28957, 72 h, pH 7, read-out: Minimum inhibitory concentration, Cryptococcus neoformans
Method: as §1, §2, §3

[15] = system: Fusarium oxysporum; experiment: microbe, parasite or virus in culture; settings: Fusarium oxysporum, 48 h, pH 7, read-out: Minimum inhibitory concentration, Fusarium oxysporum
Method: as §1, §2, §3

[16] = system: Ramularia areola; experiment: microbe, parasite or virus in culture; settings: Ramulariopsis gossypii, 120 h, pH 7, read-out: Minimum inhibitory concentration, Ramularia areola
Method: as §1, §2, §3

[17] = system: Trichoderma asperellum; experiment: microbe, parasite or virus in culture; settings: Trichoderma asperellum, 48 h, pH 7, read-out: Minimum inhibitory concentration, Trichoderma asperellum
Method: as §1, §2, §3

| MIC [13] [µM] | MIC [14] [µM] | MIC [15] [µM] | MIC [16] [µM] | MIC [17] [µM] | SMILES | Minimum inhibitory concentration, Bacillus subtilis [1] [µM] | Minimum inhibitory concentration, Erwinia carotovora [2] [µM] | Minimum inhibitory concentration, Escherichia coli [3] [µM] | Minimum inhibitory concentration, Pseudomonas syringae pv. tabaci [4] [µM] | Minimum inhibitory concentration, Staphylococcus aureus [5] [µM] | Minimum inhibitory concentration, Xanthomonas campestris [6] [µM] | Minimum microbicidal concentration, Escherichia coli [7] [µM] | Minimum microbicidal concentration, Bacillus subtilis [8] [µM] | Minimum microbicidal concentration, Staphylococcus aureus [9] [µM] | Minimum microbicidal concentration, Erwinia carotovora [10] [µM] | Minimum microbicidal concentration, Pseudomonas syringae pv. tabaci [11] [µM] | Minimum microbicidal concentration, Xanthomonas campestris [12] [µM] |
| --- | --- | --- | --- | --- | --- | --- | --- | --- | --- | --- | --- | --- | --- | --- | --- | --- | --- |
|  |  |  |  |  | CC1(C)S[C@@H]2[C@H](NC(=O)[C@H](N)c3ccccc3)C(=O)N2[C@H]1C(=O)O [Ampicilin] | 0.08 (≈ 0.028 µg/mL) | 1.35 (≈ 0.472 µg/mL) | 10.77 (≈ 3.76 µg/mL) | 2.69 (≈ 0.94 µg/mL) | 5.38 (≈ 1.88 µg/mL) | 1.35 (≈ 0.472 µg/mL) | 10.77 ± 0.0 | 0.08 ± 0.0 | 10.77 ± 0.0 | 2.70 ± 0.0 | 10.77 ± 0.0 | 5.38 ± 0.0 |
| 0.27 (≈ 0.25 µg/mL) | 0.13 (≈ 0.12 µg/mL) | 0.54 (≈ 0.499 µg/mL) | 0.54 (≈ 0.499 µg/mL) | 2.16 (≈ 2 µg/mL) | C[C@@H]1[C@H](O)[C@@H](C)/C=C/C=C/C=C/C=C/C=C/C=C/C=C/[C@H](O[C@@H]2O[C@H](C)[C@@H](O)[C@H](N)[C@@H]2O)C[C@@H]2O[C@](O)(C[C@@H](O)C[C@@H](O)[C@H](O)CC[C@@H](O)C[C@@H](O)CC(=O)O[C@H]1C)C[C@H](O)[C@H]2C(=O)O [Amphotericin B] |  |  |  |  |  |  |  |  |  |  |  |  |
